Results from patent publication US7122573B2, “Analogs of green tea polyphenols as chemotherapeutic and chemopreventive agents” (SRI International, priority 2002, dated 2006).

Legend:
Format in all cases: cell-based
[1] = tested on: human lung tumor cells (A427); test: Anchorage-independent growth inhibition assay (colony formation in soft agar)
Experimental: (§1) An anchorage-independent growth inhibition assay was performed as described in Korytynski, et al. (1996) “The development of an anchorage-independence assay using human lung tumor cells to screen potential chemopreventive agents,” Anticancer Res. 16, 1091–1094; and Sharma, et al. (1997) “The anchorage-independent assay as a screening tool to identify potential chemopreventive agents,” Methods Cell Sci. 19, 9–12. The assay measures the inhibition of colony formation of human lung tumor cells (A427) cells grown in soft agar. In this assay, A427 cells were grown in the presence of the test agent, SR 13196, EGCG or 13-cis-RA Control samples were tested using an equivalent volume of DMSO alone. A concurrent assay for cell survival was also performed.

[2] = tested on: human lung tumor cells (A427); test: Concurrent assay for cell survival; settings: for surviving cells: highest concentration tested (25 μM)
Experimental: as §1

[3] = tested on: MCF-7 (ER+); test: Growth inhibition assay (MTT, 8 days) in MCF-7 breast cancer cells
Experimental: (§2) Compounds of the invention were tested for their ability to inhibit growth in two breast cancer cell lines, MCF-7 (ER+) and MDA-MB-231 (ER−).
(§3) The growth inhibition assays were conducted using routine methods. Briefly, the cells were seeded in 24-well plates at a density of 2000 cells per well in 200 μL of […] growth medium. To each well was added 10 μL of DMSO containing the dissolved test compound; final DMSO concentration in each well was not more than 0.5%. Each test compound was assayed at concentrations of 0.4, 2, 10, and 50 μM. The plates were incubated for eight days, with the media and test solutions replaced every third day. On Day 8, the viable cells were measured by the MTT assay, as described in Mosmann et al. (1983), “Rapid Colorimetric Assay for Cellular Growth and Survival: Application to Proliferation and Cytotoxicity,” J. Immunol. Method. 65:55–63. The optical density at 575 nm of each test well was measured and compared to that for control wells, and the data used to calculate the percentage of growth inhibition at different concentrations. The IC50 value (the concentration of growth inhibitor that results in 50% growth inhibition of the cells in culture relative to control cells not exposed to any growth inhibitor) was determined by plotting dose-response curves.
(§4) The calculated IC50 values are set forth in Table 1, with the results representing the average of at least two experiments conducted for each compound at each of the four concentrations.

[4] = tested on: MDA-MB-231 (ER−); test: Growth inhibition assay (MTT, 8 days) in MDA-MB-231 breast cancer cells
Experimental: as §2, §3, §4

[5] = Table 1, MTT on Day 8, average of at least two experiments
[6] = Homo sapiens, MCF7, Table 2, procedures repeated with additional compounds
[7] = Homo sapiens, MDA-MB-231, Table 2, procedures repeated with additional compounds
[8] = Table 2, procedures repeated with additional compounds

Row | Compound | IC50 [3, 6] [µM] | IC50 [4, 7] [µM] | Observed Colonies ([1]; 1.56 μM) | Observed Colonies ([1]; 3.12 μM) | Observed Colonies ([1]; 6.25 μM) | Observed Colonies ([1]; 12.5 μM) | Observed Colonies ([1]; 25 μM) | Surviving Fraction ([2]; 1.56 μM) | Surviving Fraction ([2]; 3.12 μM) | Surviving Fraction ([2]; 6.25 μM) | Surviving Fraction ([2]; 12.5 μM) | Surviving Fraction ([2]; 25 μM) | surviving cells [2] [%] | also measured
1 | CC1=C(/C=C/C(C)=C/C=C/C(C)=C\C(=O)O)C(C)(C)CCC1 [13-cis-RA] |  |  | 310 | 269 | 206 | 179 | 142 | 0.85 | 0.82 | 0.83 | 0.74 | 0.68 | 68 | % Inhibition (colony formation) ([1]; 1.56 μM): 8%; % Inhibition (colony formation) ([1]; 3.12 μM): 16%; % Inhibition (colony formation) ([1]; 6.25 μM): 28%; % Inhibition (colony formation) ([1]; 12.5 μM): 35%; % Inhibition (colony formation) ([1]; 25 μM): 43%
2 | Oc1cc(O)c2c(c1)O[C@H](c1cc(O)c(O)c(O)c1)[C@H](O)C2 [EGC (2,3-cis), (−)-epigallocatechin] |  |  |  |  |  |  |  |  |  |  |  |  |  | IC50 [3, 5]: 29.8 µM; IC50 [4, 5]: 27.3 µM
3 | O=C(O[C@@H]1Cc2c(O)cc(O)cc2O[C@@H]1c1cc(O)c(O)c(O)c1)c1cc(O)c(O)c(O)c1 [EGCG, (−)-epigallocatechin-3-gallate] |  |  | 398 | 310 | 282 | 139 | 97 | 0.99 | 0.98 | 0.97 | 0.85 | 0.39 | 39 | IC50 [3, 5]: 8.22 µM; IC50 [3, 8]: 16.8 µM; IC50 [4, 5]: 11.9 µM; IC50 [4, 8]: 5.76 µM; % Inhibition (colony formation) ([1]; 1.56 μM): 0%; % Inhibition (colony formation) ([1]; 3.12 μM): 19%; % Inhibition (colony formation) ([1]; 6.25 μM): 25%; % Inhibition (colony formation) ([1]; 12.5 μM): 40%; % Inhibition (colony formation) ([1]; 25 μM): 50%
4 | trans-5,7-DIMETHYL-2-(3,4,5-TRIHYDROXY-PHENYL)-3,4-DIHYDRO-2H-CHROMAN-3-YL, 3,4,5,-TRIHYDROXY-BENZOIC ACID ESTER [SR 13911] |  |  |  |  |  |  |  |  |  |  |  |  |  | IC50 [3, 8]: 23.5 µM; IC50 [4, 8]: 42 µM
5 | COc1cc([C@H]2Oc3cc(O)cc(O)c3C[C@H]2OC(=O)c2cc(C)c(O)c(C)c2)cc(OC)c1OC [SR 13197] | 124 | 55.4 |  |  |  |  |  |  |  |  |  |  |  | 
6 | COc1cc([C@H]2Oc3cc(O)cc(O)c3C[C@H]2OC(=O)c2cc(C)c(O)c(C)c2)cc(OC)c1OC (relative stereo) [SR 13196] |  |  | 268 | 108 | 38 | 28 | 8 | 0.71 | 0.41 | 0.17 | 0.12 | 0.11 | 11 | IC50 ([3]; Homo sapiens, MCF7, 192 h, Table 1, MTT on Day 8, average of at least two experiments): 11.1 µM; IC50 ([4]; Homo sapiens, MDA-MB-231, 192 h, Table 1, MTT on Day 8, average of at least two experiments): 12.7 µM

Now from value to compound, other results behind:

Row | IC50 [3, 6] [µM] | IC50 [4, 7] [µM] | Compound | Observed Colonies ([1]; 1.56 μM) | Observed Colonies ([1]; 3.12 μM) | Observed Colonies ([1]; 6.25 μM) | Observed Colonies ([1]; 12.5 μM) | Observed Colonies ([1]; 25 μM) | Surviving Fraction ([2]; 1.56 μM) | Surviving Fraction ([2]; 3.12 μM) | Surviving Fraction ([2]; 6.25 μM) | Surviving Fraction ([2]; 12.5 μM) | Surviving Fraction ([2]; 25 μM) | surviving cells [2] [%] | also measured
7 | 39.6 | 62.1 | Cc1cc(C)c2c(c1)O[C@H](c1cc(O)c(O)c(O)c1)[C@H](OC(=O)c1cc(O)c(O)c(O)c1)C2 [SR 13912] |  |  |  |  |  |  |  |  |  |  |  | 
8 | 58.1 | 47.9 | COc1cc(OC)c2c(c1)OC(c1cc(O)c(O)c(O)c1)[C@H](OC(=O)c1cc(O)c(O)c(O)c1)C2 (stereo partly drawn) [SR 13198, trans-5,7-DIMETHOXY-2-(3,4,5-TRIHYDROXY-PHENYL)-3,4-DIHYDRO-2H-CHROMAN-3-YL, 3,4,5-TRIHYDROXY-BENZOIC ACID ESTER] |  |  |  |  |  |  |  |  |  |  |  | 
9 | 16.2 | 20.1 | Cc1cc(C)c2c(c1)O[C@H](c1cc(O)c(O)c(O)c1)[C@H](OC(=O)c1cc(C)c(O)c(C)c1)C2 [SR 13913] |  |  |  |  |  |  |  |  |  |  |  | 
